Laboratory results taken from patent publication US4085111A, “1H-tetrazole derivatives” (Yoshitomi Pharmaceutical Industries, Ltd., priority 1974, dated 1978).

Tests used:
[1] = tested on: histamine release from the peritoneal cavity; assay: Histamine release from the peritoneal cavity (dextran i.p.); assay type: in vivo, male Wistar rats; settings: Rattus norvegicus, ip; dose required for 50% inhibition; test compound i.p., dextran 180 mg/kg i.p.; rats
Protocol: Histamine release from the peritoneal cavity:
The method used was similar to that described by Hanahoe et al. (T.H.P. Hanahoe, A. Holliman, D. Gordon and W. Wieczorek, J. Pharm. Pharmac. 24, 666 (1972)). Groups of ten male Wistar rats (200-230 g) were injected intraperitoneally with 1 ml normal saline (0.9%) containing different amounts of test compound. A half minutes later they received an intraperitoneal injection of dextran (180 mg/kg, molecular weight about 250,000) or saline as vehicle control. Five minutes later the animals were killed, the peritoneal fluid was collected and centrifuged, and the supernatant was assayed fluorophotometrically for histamine. […] The percent inhibition was calculated using the following formula: [formula] The ED50, the dose required for 50% inhibition, was calculated from the dose-responsive curve.

[2] = tested on: SRS-A release from lung tissue; assay: Release of slow reacting substance of anaphylaxis (SRS-A) from sensitized lung tissue; assay type: cell-based, Guinea-pigs; settings: Cavia porcellus, sensitized guinea-pig lung tissue, egg albumen 100 μg/ml; for inhibition at 0.01 µg/mL: 0.01 μg/ml; for inhibition at 0.1 µg/mL: 0.1 μg/ml
Protocol: Release of slow reacting substance of analphylaxis (SRS-A):
Guinea-pigs were sensitized with egg albumen, which was administered as a 10% solution, 100 mg both intraperitoneally and subcutaneously. Three to four weeks later the animals were killed by a blow on the head and the heart and lungs removed from the body and cleaned of blood. The lung tissue was dissected free from the heart, trachea and major bronchioles and then finely chopped. Portions of the lung tissue in 5 ml of Tyrode solution were preincubated with each test solution (50 μl) containing a test compound for 5 minutes at 37° C, to those were added 50 μl of egg albumen (100 μg/ml in a final concentration). The incubation mixture were further incubated for 15 minutes at 37° C. After centrifugation, the supernatant was assayed for SRS-A. The activity of SRS-A was assayed on the isolated guinea-pig ileum in the presence of atropine (5 × 10^-8 g/ml) and pyribenzamine (10^-7 g/ml). The percent inhibition was calculated using the following formula: [formula]

[3] = tested on: histamine release from the peritoneal cavity; settings: dextran-induced histamine release, in this experimental method (Hanahoe et al.); cited from earlier work

Compound	ED50 [1] [µg/kg]	inhibition at 0.01 µg/mL [2] [%]	inhibition at 0.1 µg/mL [2] [%]	inhibition of the release of histamine [3]
O=c1c2cc(-c3nnn[nH]3)ccc2oc2ncccc12 [Compound A, 7-(5-1H-tetrazolyl)-5-oxo-5H-[1]benzopyrano[2,3-b]pyridine]	1	25.2	35.3	
O=c1c2cccnc2oc2c(Cl)cc(-c3nnn[nH]3)cc12 [Compound B, 9-chloro-7-(5-1H-tetrazolyl)-5-oxo-5-H-[1]benzopyrano[2,3-b]-pyridine]	0.25	19	22.6	
O=C(O)c1cc(=O)c2c(OCC(O)COc3cccc4oc(C(=O)O)cc(=O)c34)cccc2o1 [disodium cromoglycate]				inhibits markedly
